Reference: ChEMBL document CHEMBL1201862, “PubChem BioAssay data set” (2004)
The source made the active and inactive calls.

How the values were obtained:
Vero = assay: viability of Vero cells under compound – cytotoxicity control for flavivirus capping enzyme inhibitors (AID 588742); type: functional; conditions: Chlorocebus sabaeus
Hexokinase-1 = Hexokinase-1 (Homo sapiens, UniProt P19367); assay: HK1 enzyme activation by HKDC1 hits – biochemical, selectivity assay for HKDC1 activator project, dose response (AID 504762); type: functional
Hexokinase-1, sequence (P19367 whole entry): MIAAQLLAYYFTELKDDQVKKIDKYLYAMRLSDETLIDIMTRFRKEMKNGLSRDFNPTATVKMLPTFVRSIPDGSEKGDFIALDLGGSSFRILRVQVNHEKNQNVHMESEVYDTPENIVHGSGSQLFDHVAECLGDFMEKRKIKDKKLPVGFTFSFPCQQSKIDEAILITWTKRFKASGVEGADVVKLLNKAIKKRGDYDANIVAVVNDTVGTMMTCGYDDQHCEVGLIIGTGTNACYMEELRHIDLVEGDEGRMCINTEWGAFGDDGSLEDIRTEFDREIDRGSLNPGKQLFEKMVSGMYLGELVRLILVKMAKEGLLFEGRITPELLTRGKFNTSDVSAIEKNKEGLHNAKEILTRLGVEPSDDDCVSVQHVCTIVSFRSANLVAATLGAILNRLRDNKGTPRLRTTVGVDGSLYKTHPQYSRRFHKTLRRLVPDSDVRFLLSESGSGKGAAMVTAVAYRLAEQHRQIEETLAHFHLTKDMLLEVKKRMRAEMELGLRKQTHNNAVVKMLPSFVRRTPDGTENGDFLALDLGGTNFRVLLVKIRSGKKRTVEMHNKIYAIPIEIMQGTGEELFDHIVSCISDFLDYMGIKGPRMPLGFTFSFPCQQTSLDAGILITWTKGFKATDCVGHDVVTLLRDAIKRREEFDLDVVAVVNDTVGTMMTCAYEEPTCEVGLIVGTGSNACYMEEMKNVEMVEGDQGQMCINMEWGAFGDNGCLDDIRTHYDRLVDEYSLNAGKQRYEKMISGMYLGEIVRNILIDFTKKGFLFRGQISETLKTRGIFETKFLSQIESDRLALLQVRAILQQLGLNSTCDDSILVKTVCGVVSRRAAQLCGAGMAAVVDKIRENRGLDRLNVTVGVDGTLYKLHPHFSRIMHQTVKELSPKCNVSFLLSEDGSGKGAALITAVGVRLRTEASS

Protein RecA = molecular target: T1, Protein RecA (Mycobacterium tuberculosis, UniProt P9WHJ3); assay: Fluorescence Cell-Free Homogeneous Dose Retest to Identify Inhibitors of RecA-Intein Splicing Activity. [Related pubchem assays (depositor defined):AID2097, AID2223, AID489010, AID492950]; type: functional
T1 sequence (P9WHJ3 whole entry): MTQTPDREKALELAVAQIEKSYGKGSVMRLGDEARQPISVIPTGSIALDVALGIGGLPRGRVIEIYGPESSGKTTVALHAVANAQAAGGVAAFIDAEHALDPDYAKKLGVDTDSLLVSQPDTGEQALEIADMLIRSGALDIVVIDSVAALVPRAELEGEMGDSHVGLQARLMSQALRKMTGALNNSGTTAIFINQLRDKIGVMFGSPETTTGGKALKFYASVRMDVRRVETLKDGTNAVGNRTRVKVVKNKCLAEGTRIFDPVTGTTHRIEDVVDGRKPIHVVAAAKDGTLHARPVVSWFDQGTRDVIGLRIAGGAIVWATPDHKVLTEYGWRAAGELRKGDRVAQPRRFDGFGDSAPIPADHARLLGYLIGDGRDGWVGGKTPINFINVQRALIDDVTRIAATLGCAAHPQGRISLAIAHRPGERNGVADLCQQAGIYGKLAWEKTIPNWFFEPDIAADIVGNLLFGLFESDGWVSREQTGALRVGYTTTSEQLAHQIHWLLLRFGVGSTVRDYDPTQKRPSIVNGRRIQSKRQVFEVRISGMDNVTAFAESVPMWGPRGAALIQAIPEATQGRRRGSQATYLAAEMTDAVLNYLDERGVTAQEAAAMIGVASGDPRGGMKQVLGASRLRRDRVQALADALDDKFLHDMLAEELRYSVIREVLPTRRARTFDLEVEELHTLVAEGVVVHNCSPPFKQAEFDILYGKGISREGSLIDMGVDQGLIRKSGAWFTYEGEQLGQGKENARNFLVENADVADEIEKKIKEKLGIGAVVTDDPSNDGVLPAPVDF

Hexokinase HKDC1 = molecular target: T2, Hexokinase HKDC1 (Homo sapiens, UniProt Q2TB90); assay: activation of HKDC1 glucose phosphorylation – biochemical, W721R variant, dose response (AID 504730); type: functional
T2 sequence (Q2TB90 whole entry): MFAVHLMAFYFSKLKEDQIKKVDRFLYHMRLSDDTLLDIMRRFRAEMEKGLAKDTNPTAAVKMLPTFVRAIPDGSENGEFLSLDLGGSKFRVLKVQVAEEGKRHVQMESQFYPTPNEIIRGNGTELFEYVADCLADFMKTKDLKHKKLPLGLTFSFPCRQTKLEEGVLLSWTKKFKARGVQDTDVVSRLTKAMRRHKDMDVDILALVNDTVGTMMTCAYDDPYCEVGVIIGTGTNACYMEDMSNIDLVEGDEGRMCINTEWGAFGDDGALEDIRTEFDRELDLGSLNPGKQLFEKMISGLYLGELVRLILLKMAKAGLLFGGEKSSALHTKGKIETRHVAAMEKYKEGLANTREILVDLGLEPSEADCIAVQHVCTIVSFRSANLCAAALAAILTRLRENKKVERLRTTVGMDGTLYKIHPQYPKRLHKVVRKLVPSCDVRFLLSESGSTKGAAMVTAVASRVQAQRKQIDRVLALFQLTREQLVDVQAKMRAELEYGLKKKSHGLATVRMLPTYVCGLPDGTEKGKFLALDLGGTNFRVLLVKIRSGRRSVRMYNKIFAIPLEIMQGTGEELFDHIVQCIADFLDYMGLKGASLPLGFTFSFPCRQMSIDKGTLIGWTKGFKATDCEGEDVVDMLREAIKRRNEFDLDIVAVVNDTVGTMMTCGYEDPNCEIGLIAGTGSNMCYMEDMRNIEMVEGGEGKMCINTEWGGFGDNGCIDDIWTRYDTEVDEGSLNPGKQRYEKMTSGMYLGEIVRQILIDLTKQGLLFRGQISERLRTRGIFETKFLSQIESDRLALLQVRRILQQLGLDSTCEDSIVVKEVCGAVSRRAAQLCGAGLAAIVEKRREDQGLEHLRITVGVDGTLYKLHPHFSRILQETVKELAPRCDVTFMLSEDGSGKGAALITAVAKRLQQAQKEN

[1] = molecular target: T3, Apoptotic protease-activating factor 1 (Homo sapiens, UniProt O14727); type: functional
T3 sequence (O14727 whole entry): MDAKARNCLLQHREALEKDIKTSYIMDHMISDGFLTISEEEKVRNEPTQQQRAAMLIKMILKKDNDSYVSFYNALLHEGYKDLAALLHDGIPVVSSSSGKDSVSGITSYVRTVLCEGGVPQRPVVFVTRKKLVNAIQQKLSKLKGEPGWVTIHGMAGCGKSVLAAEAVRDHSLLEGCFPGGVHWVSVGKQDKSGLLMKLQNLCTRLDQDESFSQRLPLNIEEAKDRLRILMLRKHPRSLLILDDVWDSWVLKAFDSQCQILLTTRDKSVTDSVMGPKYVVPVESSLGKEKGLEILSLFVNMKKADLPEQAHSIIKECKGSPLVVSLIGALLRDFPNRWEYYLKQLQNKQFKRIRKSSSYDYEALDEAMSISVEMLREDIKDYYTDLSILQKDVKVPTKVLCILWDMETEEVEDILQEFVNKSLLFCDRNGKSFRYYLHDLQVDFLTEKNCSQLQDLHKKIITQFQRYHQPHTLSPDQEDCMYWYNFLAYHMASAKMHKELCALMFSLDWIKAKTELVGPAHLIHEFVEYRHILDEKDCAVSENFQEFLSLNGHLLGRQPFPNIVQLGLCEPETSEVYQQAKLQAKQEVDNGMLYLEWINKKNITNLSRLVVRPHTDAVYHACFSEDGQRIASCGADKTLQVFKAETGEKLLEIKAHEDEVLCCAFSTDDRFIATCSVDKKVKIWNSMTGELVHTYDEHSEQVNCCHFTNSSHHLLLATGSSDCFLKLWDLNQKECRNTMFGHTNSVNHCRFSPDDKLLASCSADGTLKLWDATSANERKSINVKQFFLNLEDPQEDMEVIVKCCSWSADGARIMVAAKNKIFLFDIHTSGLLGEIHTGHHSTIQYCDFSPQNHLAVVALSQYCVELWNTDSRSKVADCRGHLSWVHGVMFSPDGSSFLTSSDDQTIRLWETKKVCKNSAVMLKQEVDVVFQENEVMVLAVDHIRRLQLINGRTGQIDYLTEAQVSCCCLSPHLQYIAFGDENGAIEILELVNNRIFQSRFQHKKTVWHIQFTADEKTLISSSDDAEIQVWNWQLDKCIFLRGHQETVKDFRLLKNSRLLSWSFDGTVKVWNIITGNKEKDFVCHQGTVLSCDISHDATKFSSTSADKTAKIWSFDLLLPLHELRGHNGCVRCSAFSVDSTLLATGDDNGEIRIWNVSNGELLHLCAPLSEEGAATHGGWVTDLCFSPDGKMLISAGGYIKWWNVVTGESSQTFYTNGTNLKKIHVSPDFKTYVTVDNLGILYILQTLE

Genome polyprotein = Genome polyprotein (dengue virus type 2, UniProt P29990); assay: flavivirus cap methylation enzyme inhibition – biochemical, confirmation dose response, primary screen (AID 588689); type: functional
Genome polyprotein, sequence (P29990 2492-3391 limits assumed): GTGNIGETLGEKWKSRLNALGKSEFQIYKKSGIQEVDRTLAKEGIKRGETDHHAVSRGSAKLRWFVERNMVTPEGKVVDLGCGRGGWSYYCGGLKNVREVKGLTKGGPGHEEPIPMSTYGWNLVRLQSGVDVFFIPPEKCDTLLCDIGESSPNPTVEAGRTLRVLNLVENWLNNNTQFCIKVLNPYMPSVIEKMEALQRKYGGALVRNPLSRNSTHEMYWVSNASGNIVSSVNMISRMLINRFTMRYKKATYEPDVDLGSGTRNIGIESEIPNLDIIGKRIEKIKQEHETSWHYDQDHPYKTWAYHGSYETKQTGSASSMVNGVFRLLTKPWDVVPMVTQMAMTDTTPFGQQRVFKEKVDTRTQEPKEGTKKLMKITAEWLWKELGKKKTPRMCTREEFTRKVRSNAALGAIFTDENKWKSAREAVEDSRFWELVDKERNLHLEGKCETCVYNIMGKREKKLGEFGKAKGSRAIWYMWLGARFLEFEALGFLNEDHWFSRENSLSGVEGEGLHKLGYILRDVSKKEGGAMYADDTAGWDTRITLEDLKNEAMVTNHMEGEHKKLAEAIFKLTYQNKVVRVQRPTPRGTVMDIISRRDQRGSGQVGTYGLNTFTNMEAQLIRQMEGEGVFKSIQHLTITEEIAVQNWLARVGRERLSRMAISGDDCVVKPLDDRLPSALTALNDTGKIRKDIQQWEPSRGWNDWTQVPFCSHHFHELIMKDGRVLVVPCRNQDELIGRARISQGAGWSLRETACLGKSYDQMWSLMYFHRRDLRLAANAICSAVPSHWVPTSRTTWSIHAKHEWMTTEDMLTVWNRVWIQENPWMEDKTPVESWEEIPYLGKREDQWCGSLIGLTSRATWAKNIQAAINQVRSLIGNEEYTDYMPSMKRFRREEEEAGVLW

[2] = molecular target: T4, Peroxisome proliferator-activated receptor gamma (Homo sapiens, UniProt P37231); assay: competitive ligand displacement at PPARg – biochemical, fluorescence polarization, PolarScreen, PPARg partial agonist project, dose response (AID 504453)
T4 sequence (P37231 whole entry): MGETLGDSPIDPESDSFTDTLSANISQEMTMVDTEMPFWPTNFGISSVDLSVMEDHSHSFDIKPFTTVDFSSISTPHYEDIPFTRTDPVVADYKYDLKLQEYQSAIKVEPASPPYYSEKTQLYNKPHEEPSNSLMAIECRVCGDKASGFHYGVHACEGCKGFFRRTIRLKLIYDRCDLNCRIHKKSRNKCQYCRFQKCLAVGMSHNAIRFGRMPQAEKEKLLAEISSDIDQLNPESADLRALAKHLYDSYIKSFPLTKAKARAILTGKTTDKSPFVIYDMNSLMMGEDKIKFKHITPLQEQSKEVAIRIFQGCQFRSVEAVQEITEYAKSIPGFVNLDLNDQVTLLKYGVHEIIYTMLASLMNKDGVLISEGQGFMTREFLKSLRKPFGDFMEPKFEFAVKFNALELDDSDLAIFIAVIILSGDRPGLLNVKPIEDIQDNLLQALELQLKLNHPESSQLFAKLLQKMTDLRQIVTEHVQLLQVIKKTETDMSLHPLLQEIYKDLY

[3] = molecular target: T4, Peroxisome proliferator-activated receptor gamma; assay: PPARg transcriptional activation, reporter cells – cell-based, luminescence, assay provider, dose response (AID 504447); type: functional
[4] = molecular target: T4, Peroxisome proliferator-activated receptor gamma; assay: competitive ligand displacement at PPARg – biochemical, TR-FRET, LanthaScreen, PPARg partial agonist project, dose response (AID 504446)
Cannabinoid receptor 2 [5] = molecular target: T5, Cannabinoid receptor 2 (Homo sapiens, UniProt P34972); assay: SAR analysis of antagonists of the Cannabinoid Receptor 2 using an Image-Based Assay - Set 3. [Related pubchem assays (depositor defined):AID2013, AID2026]; type: functional
T5 sequence (P34972 whole entry): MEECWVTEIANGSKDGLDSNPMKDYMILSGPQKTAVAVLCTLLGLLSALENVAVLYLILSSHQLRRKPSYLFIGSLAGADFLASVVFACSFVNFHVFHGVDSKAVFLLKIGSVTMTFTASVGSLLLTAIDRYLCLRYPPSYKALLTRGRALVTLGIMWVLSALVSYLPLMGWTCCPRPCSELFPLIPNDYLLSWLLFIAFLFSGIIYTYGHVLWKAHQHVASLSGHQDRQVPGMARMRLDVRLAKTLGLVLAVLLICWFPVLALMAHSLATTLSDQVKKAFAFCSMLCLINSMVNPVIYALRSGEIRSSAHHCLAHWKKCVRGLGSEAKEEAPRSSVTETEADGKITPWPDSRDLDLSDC

[6] = molecular target: T6, G-protein coupled receptor 35 (Homo sapiens, UniProt Q9HC97); assay: SAR analysis of Agonists of the GPR35 Receptor using an Image-Based Assay - Set 4. [Related pubchem assays (depositor defined):AID2013, AID2026]; type: functional
T6 sequence (Q9HC97 whole entry): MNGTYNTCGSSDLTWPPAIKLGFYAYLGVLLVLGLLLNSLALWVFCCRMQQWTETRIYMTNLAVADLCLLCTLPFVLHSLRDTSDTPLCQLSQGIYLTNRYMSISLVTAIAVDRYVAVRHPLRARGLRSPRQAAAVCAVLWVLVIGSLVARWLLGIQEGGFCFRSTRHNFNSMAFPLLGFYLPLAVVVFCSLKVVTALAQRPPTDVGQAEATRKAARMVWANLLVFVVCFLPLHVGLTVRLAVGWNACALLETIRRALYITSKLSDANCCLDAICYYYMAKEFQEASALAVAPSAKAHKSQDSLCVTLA

[7] = molecular target: T6, G-protein coupled receptor 35; assay: SAR analysis of Antagonists of the GPR35 Receptor using an Image-Based Assay - Set 6. [Related pubchem assays (depositor defined):AID2013, AID2026]; type: functional
[8] = molecular target: G-protein coupled receptor 55 (Homo sapiens, UniProt Q9Y2T6); assay: SAR Analysis of Selective Antagonists of GPR55 using an Image-Based Assay - Set 4. [Related pubchem assays (depositor defined):AID2013, AID2026]; type: functional;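 note: antagonism of response to 5 µM lysophosphatidylinositol agonist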
G-protein coupled receptor 55, sequence (Q9Y2T6 whole entry): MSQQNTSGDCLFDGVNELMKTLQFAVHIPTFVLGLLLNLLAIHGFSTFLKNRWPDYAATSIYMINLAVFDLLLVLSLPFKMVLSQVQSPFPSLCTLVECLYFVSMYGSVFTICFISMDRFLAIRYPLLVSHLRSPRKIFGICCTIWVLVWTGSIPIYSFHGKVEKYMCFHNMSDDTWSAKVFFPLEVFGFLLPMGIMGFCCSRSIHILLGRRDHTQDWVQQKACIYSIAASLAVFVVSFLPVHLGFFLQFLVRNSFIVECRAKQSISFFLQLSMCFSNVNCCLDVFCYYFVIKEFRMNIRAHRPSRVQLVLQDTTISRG

Cannabinoid receptor 1 [9] = molecular target: T7, Cannabinoid receptor 1 (Homo sapiens, UniProt P21554); assay: SAR analysis of agonists of the Cannabinoid Receptor 1 using an Image-Based Assay - Set 4. [Related pubchem assays (depositor defined):AID2013, AID2026]; type: functional
T7 sequence (P21554 whole entry): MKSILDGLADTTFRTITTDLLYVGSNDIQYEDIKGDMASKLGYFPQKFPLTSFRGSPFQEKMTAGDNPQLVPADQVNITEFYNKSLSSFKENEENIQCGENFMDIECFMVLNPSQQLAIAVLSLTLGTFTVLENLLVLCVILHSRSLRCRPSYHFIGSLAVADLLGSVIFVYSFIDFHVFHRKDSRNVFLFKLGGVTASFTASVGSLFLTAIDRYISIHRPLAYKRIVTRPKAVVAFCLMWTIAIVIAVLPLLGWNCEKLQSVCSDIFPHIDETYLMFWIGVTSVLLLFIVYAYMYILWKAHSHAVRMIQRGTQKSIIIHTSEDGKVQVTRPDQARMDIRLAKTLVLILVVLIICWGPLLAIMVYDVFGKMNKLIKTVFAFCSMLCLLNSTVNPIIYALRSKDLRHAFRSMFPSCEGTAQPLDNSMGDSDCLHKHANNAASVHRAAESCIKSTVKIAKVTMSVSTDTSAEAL

Cannabinoid receptor 2 [10] = molecular target: T5, Cannabinoid receptor 2; assay: SAR analysis of agonists of the Cannabinoid Receptor 2 using an Image-Based Assay - Set 3. [Related pubchem assays (depositor defined):AID2013, AID2026]; type: functional
Cannabinoid receptor 1 [11] = molecular target: T7, Cannabinoid receptor 1; assay: SAR analysis of antagonists of the Cannabinoid Receptor 1 using an Image-Based Assay - Set 4. [Related pubchem assays (depositor defined):AID2013, AID2026]; type: functional
[12] = molecular target: Intestinal-type alkaline phosphatase (Homo sapiens, UniProt P09923); assay: human intestinal alkaline phosphatase activators, dose response, biochemical, luminescence, uHTS hits (AID 463120); type: functional
Intestinal-type alkaline phosphatase, sequence (P09923 whole entry): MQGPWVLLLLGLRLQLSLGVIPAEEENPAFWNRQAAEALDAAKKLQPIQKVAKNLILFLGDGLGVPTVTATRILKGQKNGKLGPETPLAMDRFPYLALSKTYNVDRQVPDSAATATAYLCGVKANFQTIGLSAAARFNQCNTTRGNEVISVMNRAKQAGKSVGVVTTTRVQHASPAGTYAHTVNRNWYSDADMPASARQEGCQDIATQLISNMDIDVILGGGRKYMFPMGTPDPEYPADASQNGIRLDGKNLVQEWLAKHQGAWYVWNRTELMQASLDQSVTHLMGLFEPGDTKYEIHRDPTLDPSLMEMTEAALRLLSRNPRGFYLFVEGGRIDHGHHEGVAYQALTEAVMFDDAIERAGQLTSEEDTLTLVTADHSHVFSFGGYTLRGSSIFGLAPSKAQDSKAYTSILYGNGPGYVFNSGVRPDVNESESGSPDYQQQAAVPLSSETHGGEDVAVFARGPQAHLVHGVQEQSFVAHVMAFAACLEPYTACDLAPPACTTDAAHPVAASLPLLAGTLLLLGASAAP

O=C1C(C2=C(O)c3ccccc3C2=O)=Nc2ccccc21
CC50 (Vero): 26.6 µM (active) | EC50 (Hexokinase-1): 37.1 µM (inactive) | EC50 (Protein RecA): 1.6 µM (active) | EC50 (Hexokinase HKDC1): 24.7 µM (inactive) | IC50 [1]: 1.31 µM (active) | IC50 (Genome polyprotein): 56.9 µM (active)

CC(=O)N1N=C(c2ccccc2)CC1c1cn(Cc2ccccc2)c2ccccc12 (configuration not stated)
IC50 [2]: 2 µM (active) | EC50 [3]: 1.2 µM (active) | IC50 [4]: 0.748 µM (active)

Cc1nc(N2CCN(C(=O)NCc3ccccc3)CC2)c2c3c(sc2n1)CCCC3
IC50 (Cannabinoid receptor 2 [5]): > 15.2 µM (inactive) | EC50 [6]: > 32 µM (inactive) | IC50 [7]: > 32 µM (inactive) | IC50 [8]: 13 µM (inactive) | EC50 (Cannabinoid receptor 1 [9]): > 32 µM (inactive) | EC50 (Cannabinoid receptor 2 [10]): > 32 µM (inactive) | IC50 (Cannabinoid receptor 1 [11]): 6.66 µM (active)

CCCCCCCn1c(=N)n(CC(=O)c2ccco2)c2ccccc21
EC50 [12]: > 100 µM (inactive)
